According to US20240350440A1, “EXTRACTION OF ABSCISIC ACID FROM STRAWBERRIES” (KING FAISAL UNIVERSITY, priority 2023, published 2024):
Marks after values point to notes of the source that are not given here.

How the values were obtained:
Assay type in all cases: in vivo
[1] = test system: albino rat after inducing myocardial infarction disease; assay: Electrocardiogram assessment in adrenaline-induced myocardial infarction; conditions: MI induced by high dose of adrenaline
Description: (§1) The extracted and purified ABA was tested on an albino rat after inducing myocardial infarction disease by using a high dose of adrenaline at Alexandria faculty of medicine and all tests of examination were performed (chemical, electrocardiograph Histological).

[2] = test system: albino rat after inducing myocardial infarction disease; assay: Histopathological assessment of H&E-stained heart tissue; set-up: key: grade 1 (normal histological the appearance of the myocardium); grade 2 (focal necrosis of myocardium); grade 3 (focal necrosis of myocardial fiber with neutrophil infiltration and interstitial edema); grade 4 (extensive necrosis of myocardial fiber with hemorrhage, interstitial edema, marked neutrophil infiltration and severe myofibrillary degeneration); conditions: MI rat
Description: as §1
With reference to the Figures, the histopathological assessment of H&E-stained (hematoxylin and eosin stained) heart tissue was scored according to severity of myocardial changes: grade 1 (normal histological the appearance of the myocardium), grade 2 (focal necrosis of myocardium), grade 3 (focal necrosis of myocardial fiber with neutrophil infiltration and interstitial edema), and grade 4 (extensive necrosis of myocardial fiber with hemorrhage, interstitial edema, marked neutrophil infiltration and severe myofibrillary degeneration).

[3] = test system: albino rat after inducing myocardial infarction disease; assay: Oxidative stress markers and antioxidant enzymes in adrenaline-induced myocardial infarction; conditions: MI induced by high dose of adrenaline
Description: as §1

[4] = test system: albino rat after inducing myocardial infarction disease; assay: Biological cardiac markers in adrenaline-induced myocardial infarction; conditions: MI induced by high dose of adrenaline
Description: as §1

SMILES | COP (mean ml/min) [1] | HR (mean b/min) [1] | RR (interval/sec) [1] | ST height [1] | carotid flow mean [1] | histopathological score, severity of myocardial changes [2] | Catalase [3] | GSH [3] | MDA [3] | NO [3] | CK-MB [4] | LDH [4] | Troponin [4]
CC1=CC(=O)CC(C)(C)C1(O)/C=C/C(C)=C\C(=O)O (centres unmarked) [Extracted ABA, abscisic acid] | 18.57 ± 1.04^b ml/min | 247.4 ± 9.69^cd b/min | 0.73 ± 0.034^b sec | 42.98 ± 4.05^b mm | 18.06 ± 1.15^b ml/min | grade 3 | 97 ± 1.73^bc U/g protein | 21.66 ± 0.39^a μmol/g protein | 5.68 ± 0.27^bcd μmol/g protein | 47.78 ± 4.49^bc μM/g protein | 1.14 ± 0.02^bc U/L | 482.67 ± 4.63^bc U/L | 1.71 ± 0.02^b ng/ml
CC1=CC(=O)CC(C)(C)[C@@]1(O)/C=C/C(C)=C\C(=O)O [Standard ABA, abscisic acid] | 17.52 ± 0.1^b ml/min | 255.77 ± 1.23^bc b/min | 0.7 ± 0.003^c sec | 39.33 ± 2.15^b mm | 17.4 ± 0.16^b ml/min | grade 3 | 112 ± 23.09^abc U/g protein | 20.01 ± 2.27^a μmol/g protein | 6.13 ± 1.34^bc μmol/g protein | 48.61 ± 5.61^bc μM/g protein | 1.22 ± 0.03^b U/L | 587.33 ± 30.12^b U/L | 1.72 ± 0.05^b ng/ml
